# According to patent US20210292710A1, “METHOD FOR ENHANCING IMMUNE FUNCTION OF IMMUNE CELL AND IMMUNE CELL LINE PRODUCED USING THE SAME” (INDUSTRY-ACADEMIC COOPERATION FOUNDATION, YONSEI UNIVERSITY, priority 2020, published 2021):
# System: GLUT1
# Experiment: GLUT1 expression in T cell based on type of PI3K inhibitor
# Source text: More specifically, referring to (a) of FIG. 12, the results of GLUT1 expression according to the type of PI3K inhibitor in the helper T cell are shown. In this connection, the PI3K inhibitor may include BKM 120 that may inhibit all subtypes, CAL-101 that may inhibit only p110δ, IPI-145 capable of inhibiting p110γ and P110δ, BYLT719 capable of inhibiting only p110α, and TGX-211 capable of inhibiting only p110β.
# Referring to (b) of FIG. 12, the results of GLUT1 expression according to the type of PI3K inhibitor in cytotoxic T cells are shown.
compound,measurement,setting,value
"CC[C@H](Nc1ncnc2[nH]cnc12)c1nc2cccc(F)c2c(=O)n1-c1ccccc1 [CAL-101, idelalisib]",GLUT1 expression level versus BYLT719 and TGX-211 inhibitors,cytotoxic T cells,higher GLUT1 expression levels
same,GLUT1 expression level versus BYLT719 and TGX-211 inhibitors,helper T cell,higher GLUT1 expression levels
